Laboratory results as given in patent publication US12043599B2, “Herbicidal compounds” (SYNGENTA PARTICIPATIONS AG, priority 2018, dated 2024).

How the values were obtained:
Type in all cases: in vivo
Conditions in all cases: 250 g/h, evaluated after 13 days
[1] = system: Alopecurus myosuroides (ALOMY); assay: Pre-emergence herbicidal glasshouse test, percentage damage
Procedure, shortened: (§1)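 Damage assessed 13 days after treatment and expressed as a five-point score (5=80-100%; 4=60-79%; 3=40-59%; 2=20-39%; 1=0-19%). Compound applied at 250 g/h as an acetone/water/0.5% Tween 20 spray, pre-emergence (day 1 after sowing) or post-emergence (day 8). Plants kept at 24/16° C., 14 h light, 65% humidity.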

Avena fatua (AVEFA) [2] = assay: as above
Procedure, shortened: as §1

[3] = system: Echinochloa crus-galli (ECHCG); assay: as above
Procedure, shortened: as §1

Lolium perenne (LOLPE) [4] = assay: as above
Procedure, shortened: as §1

Setaria faberi (SETFA) [5] = assay: as above
Procedure, shortened: as §1

Setaria faberi (SETFA) [6] = assay: Post-emergence herbicidal glasshouse test, percentage damage
Procedure, shortened: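 Percentage damage was scored 13 days after treatment on a five-point scale (1=0-19% to 5=80-100%). Treatments were post-emergence sprays on 8-day-old wheat, barley and SETFA plants in a glasshouse (24/16 °C day/night, 14 h light, 65% humidity), using acetone/water 50:50 with 0.5% Tween 20 at the stated rates. Wheat additionally received cloquintocet-mexyl safener at 50 g/ha.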

[7] = system: Alopecurus myosuroides (ALOMY); assay: as above
Procedure, shortened: as §1

Avena fatua (AVEFA) [8] = assay: as above
Procedure, shortened: as §1

[9] = system: Echinochloa crus-galli (ECHCG); assay: as above
Procedure, shortened: as §1

Lolium perenne (LOLPE) [10] = assay: as above
Procedure, shortened: as §1

Row | Structure (SMILES) | ALOMY PRE percentage damage (five point scale) [1] | AVEFA PRE percentage damage (five point scale) (Avena fatua (AVEFA) [2]) | ECHCG PRE percentage damage (five point scale) [3] | LOLPE PRE percentage damage (five point scale) (Lolium perenne (LOLPE) [4]) | SETFA PRE percentage damage (five point scale) (Setaria faberi (SETFA) [5]) | SETFA POST percentage damage (five point scale) (Setaria faberi (SETFA) [6]) | ALOMY POST percentage damage (five point scale) [7] | AVEFA POST percentage damage (five point scale) (Avena fatua (AVEFA) [8]) | ECHCG POST percentage damage (five point scale) [9] | LOLPE POST percentage damage (five point scale) (Lolium perenne (LOLPE) [10])
1 | CC#Cc1cc(C)c(C2=C(OC(=O)c3ccccn3)CC3(CCN(C(=O)c4ccccn4)CC3)CC2=O)c(C)c1 [Compound P25] | 5 (5=80-100%) | 5 (5=80-100%) | 5 (5=80-100%) | 5 (5=80-100%) | 5 (5=80-100%) | 5 (5=80-100%) | 5 (5=80-100%) | 5 (5=80-100%) | 5 (5=80-100%) | 5 (5=80-100%)
2 | CC#Cc1cc(C)c(C2C(=O)CC3(CCN(C(=O)c4cncc(OC)n4)CC3)CC2=O)c(C)c1 [Compound A180] | 5 (5=80-100%) | 5 (5=80-100%) | 5 (5=80-100%) | 5 (5=80-100%) | 5 (5=80-100%) | 5 (5=80-100%) | 5 (5=80-100%) | 5 (5=80-100%) | 5 (5=80-100%) | 5 (5=80-100%)
3 | CC#Cc1cc(C)c(C2C(=O)CC3(CCN(C(=O)COCC)CC3)CC2=O)c(C)c1 [Compound A148] | 5 (5=80-100%) | 5 (5=80-100%) | 5 (5=80-100%) | 5 (5=80-100%) | 5 (5=80-100%) | 5 (5=80-100%) | 5 (5=80-100%) | 5 (5=80-100%) | 5 (5=80-100%) | 5 (5=80-100%)
4 | CC#Cc1cc(C)c(C2=C(OC(=O)OC)CC3(CCN(C(=O)NC(=O)C(C)(C)C)CC3)CC2=O)c(C)c1 [Compound P10] | 5 (5=80-100%) | 5 (5=80-100%) | 5 (5=80-100%) | 5 (5=80-100%) | 5 (5=80-100%) | 5 (5=80-100%) | 5 (5=80-100%) | 5 (5=80-100%) | 5 (5=80-100%) | 5 (5=80-100%)
5 | CC#Cc1cc(C)c(C2C(=O)CC3(CCN(C(=O)c4ccccc4F)CC3)CC2=O)c(C)c1 [Compound A84] | 5 (5=80-100%) | 4 (4=60-79%) | 5 (5=80-100%) | 5 (5=80-100%) | 5 (5=80-100%) | 5 (5=80-100%) | 5 (5=80-100%) | 5 (5=80-100%) | 5 (5=80-100%) | 5 (5=80-100%)
6 | CC#Cc1cc(C)c(C2C(=O)CC3(CCN(C(=O)NC(=O)c4ccc(C#N)cn4)CC3)CC2=O)c(C)c1 [Compound A160] | 2 (2=20-39%) | 4 (4=60-79%) | 4 (4=60-79%) | 3 (3=40-59%) | 5 (5=80-100%) | 5 (5=80-100%) | 4 (4=60-79%) | 5 (5=80-100%) | 4 (4=60-79%) | 5 (5=80-100%)
7 | CC#Cc1cc(C)c(C2=C(OC(=O)OC)CC3(CCN(C(=O)c4ccccn4)CC3)CC2=O)c(C)c1 [Compound P24] | 5 (5=80-100%) | 5 (5=80-100%) | 5 (5=80-100%) | 5 (5=80-100%) | 5 (5=80-100%) | 5 (5=80-100%) | 5 (5=80-100%) | 5 (5=80-100%) | 5 (5=80-100%) | 5 (5=80-100%)
8 | CC#Cc1cc(C)c(C2C(=O)CC3(CCN(C(=O)Nc4ncccc4C)CC3)CC2=O)c(C)c1 [Compound A177] | 2 (2=20-39%) | 4 (4=60-79%) | 5 (5=80-100%) | 5 (5=80-100%) | 5 (5=80-100%) | 5 (5=80-100%) | 4 (4=60-79%) | 5 (5=80-100%) | 5 (5=80-100%) | 5 (5=80-100%)
9 | CC#Cc1cc(C)c(C2C(=O)CC3(CCN(C(=O)NC(=O)c4ncc(C(F)(F)F)cc4Cl)CC3)CC2=O)c(C)c1 [Compound A158] | 2 (2=20-39%) | 2 (2=20-39%) | 5 (5=80-100%) | 3 (3=40-59%) | 5 (5=80-100%) | 5 (5=80-100%) | 3 (3=40-59%) | 5 (5=80-100%) | 5 (5=80-100%) | 5 (5=80-100%)
10 | CC#Cc1cc(C)c(C2C(=O)CC3(CCN(C(=O)c4ccccc4)CC3)CC2=O)c(OC)c1 [Compound A73] | 5 (5=80-100%) | 5 (5=80-100%) | 5 (5=80-100%) | 5 (5=80-100%) | 5 (5=80-100%) | 5 (5=80-100%) | 5 (5=80-100%) | 5 (5=80-100%) | 5 (5=80-100%) | 5 (5=80-100%)
11 | CC#Cc1cc(C)c(C2C(=O)CC3(CCN(C(=O)N(C)C(=O)C(C)(C)C)CC3)CC2=O)c(C)c1 [Compound A165] | 4 (4=60-79%) | 4 (4=60-79%) | 5 (5=80-100%) | 4 (4=60-79%) | 5 (5=80-100%) | 5 (5=80-100%) | 5 (5=80-100%) | 5 (5=80-100%) | 5 (5=80-100%) | 5 (5=80-100%)
12 | CC#Cc1cc(C)c(C2=C(OC(=O)OC)CC3(CCN(C(=O)COC)CC3)CC2=O)c(C)c1 [Compound P19] | 5 (5=80-100%) | 5 (5=80-100%) | 5 (5=80-100%) | 5 (5=80-100%) | 5 (5=80-100%) | 5 (5=80-100%) | 5 (5=80-100%) | 5 (5=80-100%) | 5 (5=80-100%) | 5 (5=80-100%)
13 | CC#Cc1cc(C)c(C2C(=O)CC3(CCN(C(=O)CCC#N)CC3)CC2=O)c(C)c1 [Compound A198, 4-[9-(2,6-dimethyl-4-prop-1-ynyl-phenyl)-8,10-dioxo-3-azaspiro[5.5]undecan-3-yl]-4-oxo-butanenitrile] | 5 (5=80-100%) | 4 (4=60-79%) | 5 (5=80-100%) | 5 (5=80-100%) | 5 (5=80-100%) | 5 (5=80-100%) | 5 (5=80-100%) | 5 (5=80-100%) | 5 (5=80-100%) | 5 (5=80-100%)
